Data reported in PubChem BioAssay AID328 (DTP/NCI, 2004).
“And” between values parts separate entries of the source, which are not always exact repeats. Identical values can stand only once. Toxic doses and inconclusive results are not listed.

System: BDF1 mice, P388 leukemia ip, median survival T/C
Assay: NCI In Vivo Anticancer Drug Screen. Data for tumor model P388 Leukemia (intraperitoneal) in B6D2F1 (BDF1) mice
Settings: endpoint: median survival time, higher = longer survival
How it was run: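 Steps: implant the tumour, treat one group with compound and another with vehicle, record survival, then divide treated by control.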

[1] = dose: 400.0 mg/kg/injection, schedule: Q01DX009 (ip), vehicle: water

Nc1ncnc2c1ncn2C1OC(CO)C(O)C1O (stereo not given)
T/C (dose: 1.56 mg/kg/injection, schedule: Q#A X018 (ip), vehicle: saline with Tween-80): 113 % of control
T/C (dose: 3.13 mg/kg/injection, schedule: Q#A X018 (ip), vehicle: saline with Tween-80): 100 % of control
T/C (dose: 6.25 mg/kg/injection, schedule: Q#A X018 (ip), vehicle: saline with Tween-80): 100 % of control
T/C (dose: 10.0 mg/kg/injection, schedule: Q01DX009 (ip), vehicle: saline with Tween-80): 105 % of control
T/C (dose: 12.5 mg/kg/injection, schedule: Q#A X018 (ip), vehicle: saline with Tween-80): 109 % of control
T/C (dose: 14.0 mg/kg/injection, schedule: Q01DX009 (ip), vehicle: saline): 120 % of control
T/C (dose: 20.0 mg/kg/injection, schedule: Q01DX009 (ip), vehicle: saline with Tween-80): 91 % of control and 100 % of control
T/C (dose: 25.0 mg/kg/injection, schedule: Q04DX003 (ip), vehicle: saline): 109 % of control
T/C (dose: 40.0 mg/kg/injection, schedule: Q01DX009 (ip), vehicle: saline with Tween-80): 114 % of control and 122 % of control
T/C (dose: 50.0 mg/kg/injection, schedule: Q04DX003 (ip), vehicle: saline): 113 % of control
T/C (dose: 78.0 mg/kg/injection, schedule: Q01DX009 (ip), vehicle: saline with Tween-80): 178 % of control
T/C (dose: 78.6 mg/kg/injection, schedule: Q01DX005 (ip), vehicle: water): 108 % of control
T/C (dose: 78.6 mg/kg/injection, schedule: Q01DX009 (ip), vehicle: water): 102 % of control
T/C (dose: 100.0 mg/kg/injection, schedule: Q04DX003 (ip), vehicle: saline): 109 % of control
T/C (dose: 110.0 mg/kg/injection, schedule: Q03HX024 (ip), vehicle: saline with Tween-80): 184 % of control
T/C (dose: 118.0 mg/kg/injection, schedule: Q01DX005 (ip), vehicle: water): 114 % of control
T/C (dose: 118.0 mg/kg/injection, schedule: Q01DX009 (ip), vehicle: saline with Tween-80): 165 % of control
T/C (dose: 118.0 mg/kg/injection, schedule: Q01DX009 (ip), vehicle: water): 105 % of control
T/C (dose: 160.0 mg/kg/injection, schedule: Q01DX009 (ip), vehicle: saline with Tween-80): 151 % of control and 185 % of control
T/C (dose: 160.0 mg/kg/injection, schedule: Q03HX024 (ip), vehicle: saline with Tween-80): 206 % of control
T/C (dose: 177.0 mg/kg/injection, schedule: Q01DX005 (ip), vehicle: water): 111 % of control
T/C (dose: 177.0 mg/kg/injection, schedule: Q01DX009 (ip), vehicle: saline with Tween-80): 156 % of control and 169 % of control
T/C (dose: 177.0 mg/kg/injection, schedule: Q01DX009 (ip), vehicle: water): 112 % of control
T/C (dose: 240.0 mg/kg/injection, schedule: Q03HX024 (ip), vehicle: saline with Tween-80): 228 % of control
T/C (dose: 266.0 mg/kg/injection, schedule: Q01DX005 (ip), vehicle: water): 117 % of control
T/C (dose: 266.0 mg/kg/injection, schedule: Q01DX009 (ip), vehicle: saline with Tween-80): 156 % of control and 166 % of control
T/C (dose: 266.0 mg/kg/injection, schedule: Q01DX009 (ip), vehicle: water): 117 % of control
T/C (dose: 320.0 mg/kg/injection, schedule: Q01DX009 (ip), vehicle: saline with Tween-80): 185 % of control
T/C (dose: 400.0 mg/kg/injection, schedule: Q01DX005 (ip), vehicle: water): 117 % of control
T/C [1]: 114 % of control
T/C (dose: 900.0 mg/kg/injection, schedule: Q01DX009 (ip), vehicle: saline with Tween-80): 155 % of control and 156 % of control

O=C1C2C(C(=O)N1c1ccc(OCc3ccccc3)cc1)C1c3ccccc3C2C2CCCCN21 (stereo not given)
T/C (dose: 3.13 mg/kg/injection, schedule: Q04DX003 (ip), vehicle: water): 93 % of control
T/C (dose: 6.25 mg/kg/injection, schedule: Q04DX003 (ip), vehicle: water): 101 % of control
T/C (dose: 12.5 mg/kg/injection, schedule: Q04DX003 (ip), vehicle: water): 97 % of control
T/C (dose: 25.0 mg/kg/injection, schedule: Q04DX003 (ip), vehicle: water): 101 % of control
T/C (dose: 50.0 mg/kg/injection, schedule: Q04DX003 (ip), vehicle: water): 99 % of control

CCCCOCN(COCCCC)c1ccc([N+](=O)[O-])cc1
T/C (dose: 50.0 mg/kg/injection, schedule: Q01DX009 (ip), vehicle: saline with Tween-80): 106 % of control
T/C (dose: 100.0 mg/kg/injection, schedule: Q01DX009 (ip), vehicle: saline with Tween-80): 104 % of control
T/C (dose: 200.0 mg/kg/injection, schedule: Q01DX009 (ip), vehicle: saline with Tween-80): 100 % of control

Cc1ccc2oc(=O)c(C3=CC(=O)C(SC(=N)N)C=C3O)c(O)c2c1 (stereo not given)
T/C (dose: 50.0 mg/kg/injection, schedule: Q01DX005 (ip), vehicle: Klucel (hydroxypropylcellulose) (HPC)): 95 % of control
T/C (dose: 100.0 mg/kg/injection, schedule: Q01DX005 (ip), vehicle: Klucel (hydroxypropylcellulose) (HPC)): 97 % of control
T/C (dose: 200.0 mg/kg/injection, schedule: Q01DX005 (ip), vehicle: Klucel (hydroxypropylcellulose) (HPC)): 91 % of control

Cc1ccc(S(=O)(=O)OCCN(CCOS(=O)(=O)c2ccc(C)cc2)c2ccc(N=O)cc2)cc1
T/C (dose: 66.0 mg/kg/injection, schedule: Q04DX003 (ip), vehicle: saline sonified): 195 % of control
T/C (dose: 100.0 mg/kg/injection, schedule: Q04DX003 (ip), vehicle: saline sonified): 200 % of control
T/C (dose: 150.0 mg/kg/injection, schedule: Q04DX003 (ip), vehicle: saline sonified): 216 % of control

C/C(CC(=O)O)=C(\C)C(=O)O
T/C (dose: 25.0 mg/kg/injection, schedule: Q01DX009 (ip), vehicle: water): 100 % of control
T/C (dose: 50.0 mg/kg/injection, schedule: Q01DX009 (ip), vehicle: water): 100 % of control
T/C (dose: 100.0 mg/kg/injection, schedule: Q01DX001 (ip), vehicle: saline): 96 % of control
T/C (dose: 100.0 mg/kg/injection, schedule: Q01DX009 (ip), vehicle: water): 97 % of control and 103 % of control
T/C (dose: 100.0 mg/kg/injection, schedule: Q04DX003 (ip), vehicle: water): 108 % of control
T/C (dose: 200.0 mg/kg/injection, schedule: Q01DX001 (ip), vehicle: saline): 100 % of control
T/C (dose: 200.0 mg/kg/injection, schedule: Q01DX009 (ip), vehicle: water): 112 % of control
T/C (dose: 400.0 mg/kg/injection, schedule: Q01DX001 (ip), vehicle: saline): 100 % of control
T/C [1]: 105 % of control

CC(=O)OC1C(=O)C(O)C(C)OC1O[C@@H]1C[C@@]2(C)[C@@H]3CC=C4[C@@H](C[C@H](O)C(=O)C4(C)C)[C@]3(C)C(=O)C[C@]2(C)[C@H]1[C@@](C)(O)C(=O)/C=C/C(C)(C)O (stereo not given in full)
T/C (dose: 0.13 mg/kg/injection, schedule: Q01DX009 (ip), vehicle: Klucel (hydroxypropylcellulose) (HPC)): 104 % of control
T/C (dose: 0.16 mg/kg/injection, schedule: Q01DX010 (ip), vehicle: saline): 107 % of control and 110 % of control
T/C (dose: 0.25 mg/kg/injection, schedule: Q01DX009 (ip), vehicle: Klucel (hydroxypropylcellulose) (HPC)): 109 % of control
T/C (dose: 0.25 mg/kg/injection, schedule: Q01DX010 (ip), vehicle: carboxymethylcellulose (CMC)): 90 % of control
T/C (dose: 0.33 mg/kg/injection, schedule: Q01DX010 (ip), vehicle: saline): 109 % of control and 110 % of control
T/C (dose: 0.5 mg/kg/injection, schedule: Q01DX009 (ip), vehicle: Klucel (hydroxypropylcellulose) (HPC)): 118 % of control
T/C (dose: 0.5 mg/kg/injection, schedule: Q01DX010 (ip), vehicle: carboxymethylcellulose (CMC)): 87 % of control and 90 % of control
T/C (dose: 0.67 mg/kg/injection, schedule: Q01DX010 (ip), vehicle: saline): 108 % of control and 110 % of control
T/C (dose: 1.0 mg/kg/injection, schedule: Q01DX009 (ip), vehicle: Klucel (hydroxypropylcellulose) (HPC)): 113 % of control
T/C (dose: 1.25 mg/kg/injection, schedule: Q01DX010 (ip), vehicle: saline): 109 % of control and 110 % of control
T/C (dose: 1.4 mg/kg/injection, schedule: Q01DX009 (ip), vehicle: saline): 150 % of control
T/C (dose: 2.0 mg/kg/injection, schedule: Q01DX009 (ip), vehicle: Klucel (hydroxypropylcellulose) (HPC)): 90 % of control
T/C (dose: 2.5 mg/kg/injection, schedule: Q01DX010 (ip), vehicle: saline): 110 % of control and 111 % of control
T/C (dose: 2.6 mg/kg/injection, schedule: Q01DX009 (ip), vehicle: saline): 120 % of control

CC(C)(C)OC(=O)NC(CCCNC(=O)OCc1ccccc1)C(=O)NC(CCCNC(=O)OCc1ccccc1)C(=O)OCc1ccccc1 (stereo not given)
T/C (dose: 50.0 mg/kg/injection, schedule: Q01DX005 (ip), vehicle: saline with Tween-80): 91 % of control
T/C (dose: 100.0 mg/kg/injection, schedule: Q01DX005 (ip), vehicle: saline with Tween-80): 92 % of control
T/C (dose: 200.0 mg/kg/injection, schedule: Q01DX005 (ip), vehicle: saline with Tween-80): 95 % of control

COc1cc2oc3c(c(=O)c2c(O)c1/C=C/C(C)C)CCC(C)(C)Oc1cc(O)ccc1-3
T/C (dose: 3.13 mg/kg/injection, schedule: Q01DX009 (ip), vehicle: Klucel (hydroxypropylcellulose) (HPC)): 96 % of control
T/C (dose: 6.25 mg/kg/injection, schedule: Q01DX009 (ip), vehicle: Klucel (hydroxypropylcellulose) (HPC)): 94 % of control
T/C (dose: 12.5 mg/kg/injection, schedule: Q01DX009 (ip), vehicle: Klucel (hydroxypropylcellulose) (HPC)): 94 % of control
T/C (dose: 25.0 mg/kg/injection, schedule: Q01DX009 (ip), vehicle: Klucel (hydroxypropylcellulose) (HPC)): 103 % of control
